In brackets after ≈: the same amount, converted by molar mass. Like-named read-outs stand apart in the source and are kept apart here.
Legend:
[1] = tested on: K. pneumonia; test: MIC against G-ve with and without colistin: K. pneumonia; format: cell-based; conditions: without colistin
[2] = tested on: A. baumannii; test: MIC against G-ve with and without colistin: A. baumannii; format: cell-based
[3] = tested on: VRE (14) clinical isolates; test: MIC against Gram +ve clinical isolates: VRE; format: cell-based, enterococcus
[4] = tested on: E.. coli O157:H7; test: MIC against G-ve with and without colistin: E. coli O157:H7; format: cell-based
[5] = tested on: MRSA (23) clinical isolates; test: MIC against Gram +ve clinical isolates: MRSA; format: cell-based, S. aureus; conditions: for MIC50: MRSA (23)
[6] = tested on: Colistin resistant clinical isolates of P. aeruginosa; test: MIC against G-ve with and without colistin: colistin resistant P. aeruginosa; format: cell-based; conditions: without colistin
[7] = tested on: mitochondrial protein synthesis in J774A.1 cells; test: Mitochondrial biogenesis in-cell ELISA (COX-I / SDH-A); format: cell-based; conditions: J774A.1 cells treated for three days
Text: Due to concern about the possible mitochondrial toxicities associated with many antibacterial protein synthesis inhibitors such as linezolid and chloramphenicol, we tested the effect of Auranofin and Ebselen on mitochondrial protein synthesis directly within the mammalian cells.

[8] = tested on: MRSA USA300; test: Mouse model of MRSA systemic infection (lethal); format: in vivo, BALB/c mice; conditions: oral 30 mg/kg once daily, three doses
Text: For MRSA systemic infection, neutropenic Female BALB/c mice were inoculated IP with 1×10^9 MRSA USA300.

[9] = tested on: S. Typhimurium; test: MIC against G-ve with and without colistin: S. Typhimurium; format: cell-based
[10] = tested on: A. baumannii ATCC BAA-1605; test: Library hits: MIC against A. baumannii; format: cell-based
[11] = tested on: P. aeruginosa ATCC 15442; test: Library hits: MIC against P. aeruginosa; format: cell-based
[12] = in vivo
[13] = tested on: E. cloacae ATCC BAA-1143; test: Library hits: MIC against E. cloacae; format: cell-based

Structure (SMILES) | MIC, colistin (−) [1] [µg/mL] | MIC, colistin (+) ([2]; with sub-inhibitory colistin 0.0625 μg/ml) [µg/mL] | MIC, colistin (−) ([2]; without colistin) [µg/mL] | MIC50 ([3]; Enterococcus, read-out: MIC50) [µg/mL] | MIC50 ([3]; second column per drug) [µg/mL] | MIC, colistin (+) ([4]; E. coli O157:H7, with sub-inhibitory colistin 0.0625 μg/ml) [µg/mL] | MIC, colistin (−) ([4]; E. coli O157:H7, without colistin) [µg/mL] | MIC50 ([5]; second column per drug) [µg/mL] | MIC90 ([5]; Staphylococcus aureus, MRSA, read-out: MIC90 (MICs at which 90% of MRSA isolates were inhibited)) [µg/mL] | MIC50 ([5]; Staphylococcus aureus, read-out: MIC50) [µg/mL] | MIC, colistin (−) [6] [µg/mL] | inhibition of mitobiogenesis [7] | mice survival [8] [%] | MIC, colistin (+) ([9]; with sub-inhibitory colistin 0.25 μg/ml) [µg/mL] | MIC, colistin (−) ([9]; without colistin) [µg/mL] | MIC/MBC [10] [µM] | MIC/MBC [11] [µM] | achieved plasma concentration after a therapeutic dose relative to required MIC90 against MRSA [12] | MIC/MBC [13] [µM]
O=c1c2ccccc2[se]n1-c1ccccc1 [Ebselen] | 64 (≈ 233 µM) | 0.25 (≈ 0.912 µM) | 16 (≈ 58.4 µM) | 0.5 (≈ 1.82 µM) | 0.5 (≈ 1.82 µM) | 0.125 (≈ 0.456 µM) | 32 (≈ 117 µM) | 0.25 (≈ 0.912 µM) | 0.25 (≈ 0.912 µM) | 0.25 (≈ 0.912 µM) | >256 | less than 10% | 60 | 0.0625 (≈ 0.228 µM) | 32 (≈ 117 µM) | – | – | – | –
O=c1[nH]c(=O)n([C@H]2C[C@H](O)[C@@H](CO)O2)cc1F [FdUrd, 5-fluoro-2′-deoxyuridine] | – | – | – | – | – | – | – | – | – | – | – | – | – | – | – | >16 | >16 | more than a thousand-folds higher | >16

From US10301664B2, “Repurposing non-antimicrobial drugs and clinical molecules to treat bacterial infections” (Purdue Research Foundation, priority 2015, dated 2019)
